Reference: patent publication US20140073651A1, “BENZAMIDE DERIVATIVES AS P2X7 RECEPTOR ANTAGONISTS” (Actelion Pharmaceuticals Ltd., priority 2011, published 2014)

What follows are compounds tested against T1, human recombinant P2X7 receptor (Homo sapiens, UniProt Q99572) (assay: YO-PRO assay (YO-PRO-1 uptake) in HEK cells stably expressing P2X7). Conditions: HEK-293 cells expressing human recombinant P2X7 receptor; ATP 250 μM, 90 minutes; YO-PRO-1 fluorescence (FLIPR tetra); read-out: IC50 (antagonistic activity with respect to the P2X7 receptor).
T1 construct: expressed in transfected cells
T1 sequence (Q99572 1-595): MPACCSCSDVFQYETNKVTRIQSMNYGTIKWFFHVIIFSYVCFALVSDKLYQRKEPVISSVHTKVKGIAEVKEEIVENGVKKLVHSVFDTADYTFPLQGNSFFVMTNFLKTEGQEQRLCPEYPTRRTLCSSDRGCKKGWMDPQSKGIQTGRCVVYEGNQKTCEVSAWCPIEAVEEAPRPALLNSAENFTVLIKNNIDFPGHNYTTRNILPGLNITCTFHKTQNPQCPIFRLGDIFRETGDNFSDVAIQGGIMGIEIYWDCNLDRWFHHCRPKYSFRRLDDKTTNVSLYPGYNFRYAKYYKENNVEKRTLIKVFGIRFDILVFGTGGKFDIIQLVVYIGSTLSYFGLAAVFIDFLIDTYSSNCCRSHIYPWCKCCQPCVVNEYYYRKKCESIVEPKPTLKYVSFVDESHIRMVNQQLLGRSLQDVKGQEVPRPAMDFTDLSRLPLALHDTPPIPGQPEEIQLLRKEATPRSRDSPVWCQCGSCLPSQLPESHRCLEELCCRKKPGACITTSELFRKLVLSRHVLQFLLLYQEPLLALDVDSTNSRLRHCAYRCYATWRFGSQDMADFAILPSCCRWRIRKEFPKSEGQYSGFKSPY
Format: cell-based
Protocol: Cell line generation was performed in general according to established molecular cloning protocols. Specifically, RNA was extracted from human whole blood using the Qiagen RNeasy kit (Qiagen, CH) according to the manufacturer's instructions. Subsequently cDNA was made (Superscript II, Invitrogen AG, CH) and the human P2X7 gene (genbank ref. BC011913) was amplified with the following primers: [NT] and [NT] The amplified sequence was subsequently ligated into a pcDNA3.1 (+) NotI, NheI digested plasmid. […] Following a 24 h exposure to DNA, cells were trypsinized and re-seeded at low density in the presence of 250 μg Geneticin. Geneticin resistant cells were then selected during two consecutive rounds of cloning by serial limiting dilution with visual inspection. Individual clones were screened for P2X7 expression by applying ATP and recording the resultant uptake of YO-[…]. Specific cell clones were chosen based on RNA and protein expression. HEK cells stably expressing P2X7 were used to screen drugs using the YO-[…] assay. Cells were grown to confluency in adherent culture at 37° C. in a humidified 5% CO2 incubator (split 1/5 every 3-4 days with DMEM, 10% FCS, 1% Penicillin/Streptomycin, 250 μg/ml Geneticin). Adherent cells were detached by incubation with Trypsine (1 ml per 165 cm^2 dish) for 2 minutes, then washed off with 10 ml PBS (without Mg^2+ and Ca^2+), and resuspended in DMEM, 10% FCS, 1% Penicillin/Streptomycin, no Geneticin. 10'000 cells per well (48 hours before the assay) or 25'000 cells per well (Vi-cell XR (Beckman Coulter) (24 hours before the assay) in 50 μl full medium were seeded on 384-well black-wall, clear bottom plates, that were coated before with 10 μl per well Poly-L-Lysine, incubated for 30-60 minutes at 37° C. and washed once with PBS. Medium was removed from cells and 50 μl of assay buffer containing 0.5 μM YO-[…] was added into the wells. Solutions of antagonist compounds were prepared by serial dilutions of a 10 mM DMSO solution of the antagonist into PBS using a BioMek (Beckman Coulter). Each concentration was performed in duplicate. […] During this time period, four time points were taken. Each time point comprised the average of several measurements made within a few seconds. […] The FLIPR tetra was equipped with Molecular Devices Screen Works system control software to define and run experimental protocols. […] For IC50 measurements the maximum intensity is plotted against the concentration of compound to determine IC50 values.

SMILES | IC50
CCCN(c1ccc(Cl)c(C(=O)NCC2(O)CCCCC2)c1)c1ccnc(Cl)n1 [Example 22, 2-Chloro-5-[(2-chloro-pyrimidin-4-yl)-propyl-amino]-N-(1-hydroxy-cyclohexylmethyl)-benzamide] | 267 nM
CC(C)CN(c1ccc(Cl)c(C(=O)NCC2(O)CCCCC2)c1)c1cc[nH]c(=O)n1 [Example 27, 2-Chloro-N-(1-hydroxy-cyclohexylmethyl)-5-[isobutyl-(2-oxo-1,2-dihydro-pyrimidin-4-yl)-amino]-benzamide] | 30 nM
COC1(CNC(=O)c2cc(N(C)c3ccnc(=O)[nH]3)ccc2Cl)CCCCC1 [Example 52, 2-Chloro-N-(1-methoxy-cyclohexylmethyl)-5-[methyl-(2-oxo-2,3-dihydro-pyrimidin-4-yl)-amino]-benzamide] | 170 nM
CN(c1ccc(Cl)c(C(=O)NCC2(O)CCCCC2)c1)c1ncccn1 [Example 70, 2-Chloro-N-(1-hydroxy-cyclohexylmethyl)-5-(methyl-pyrimidin-2-yl-amino)-benzamide] | 373 nM
CC(O)(c1ccc(Cl)c(C(=O)NCC2(O)CCCCC2)c1)c1cc[nH]c(=O)n1 (single isomer, unassigned) [Example 158] | 66 nM
COCCN(c1ccc(Cl)c(C(=O)NCC2(O)CCCCC2)c1)c1cc[nH]c(=O)n1 [Example 33, 2-Chloro-N-(1-hydroxy-cyclohexylmethyl)-5-[(2-methoxy-ethyl)-(2-oxo-1,2-dihydro-pyrimidin-4-yl)-amino]-benzamide] | 183 nM
CN(c1ccc(Cl)c(C(=O)NCC2(O)CCCCC2)c1)c1nccc(=O)[nH]1 [Example 75, 2-Chloro-N-(1-hydroxy-cyclohexylmethyl)-5-[methyl-(6-oxo-1,6-dihydro-pyrimidin-2-yl)-amino]-benzamide] | 1020 nM
O=C(NCC1(O)CCCCC1)c1cc(Cc2ccccn2)ccc1Cl [Example 145, 2-Chloro-N-(1-hydroxy-cyclohexylmethyl)-5-pyridin-2-ylmethyl-benzamide] | 21 nM
O=C(NCC1(O)CCCCC1)c1cc(Nc2ccccc2F)ccc1Cl [Example 4, 2-Chloro-5-(2-fluoro-phenylamino)-N-(1-hydroxy-cyclohexylmethyl)-benzamide] | 103 nM
CC(O)(c1ccc(Cl)c(C(=O)NCC2(O)CCCCC2)c1)c1cc[nH]c(=O)n1 (single isomer, unassigned) [Example 157, 2-Chloro-N-(1-hydroxy-cyclohexylmethyl)-5-[1-hydroxy-1-(2-oxo-1,2-dihydro-pyrimidin-4-yl)-ethyl]-benzamide] | 9 nM
COc1cc(N(C)c2ccc(Cl)c(C(=O)NCC3(O)CCCCC3)c2)ncn1 [Example 67, 2-Chloro-N-(1-hydroxy-cyclohexylmethyl)-5-[(6-methoxy-pyrimidin-4-yl)-methyl-amino]-benzamide] | 337 nM
O=C(NCC1(O)CCCCC1)c1cc(N(CCOc2ccccc2)c2ccnc(Cl)n2)ccc1Cl [Example 38, 2-Chloro-5-[(2-chloro-pyrimidin-4-yl)-(2-phenoxy-ethyl)-amino]-N-(1-hydroxy-cyclohexylmethyl)-benzamide] | 764 nM
O=C(NCC1(O)CCCCC1)c1cc(Sc2cc[nH]c(=O)n2)ccc1Cl [Example 137, 2-Chloro-N-(1-hydroxy-cyclohexylmethyl)-5-(2-oxo-1,2-dihydro-pyrimidin-4-ylsulfanyl)-benzamide] | 8.1 nM
O=C(NCC1(O)CCC(F)(F)CC1)c1cc(Cc2cc[nH]c(=O)n2)ccc1Cl [Example 149, 2-Chloro-N-(4,4-difluoro-1-hydroxy-cyclohexylmethyl)-5-(2-oxo-1,2-dihydro-pyrimidin-4-ylmethyl)-benzamide] | 33 nM
O=C(NCC1(O)CCCCC1)c1cc(Oc2ccnc(Cl)n2)ccc1Cl [Example 115, 2-Chloro-5-(2-chloro-pyrimidin-4-yloxy)-N-(1-hydroxy-cyclohexylmethyl)-benzamide] | 191 nM
CNc1cccc(Oc2ccc(Cl)c(C(=O)NCC3(O)CCCCC3)c2)n1 [Example 109, 2-Chloro-N-(1-hydroxy-cyclohexylmethyl)-5-(6-methylamino-pyridin-2-yloxy)-benzamide] | 53 nM
CN(c1ccc(Cl)c(C(=O)NCC2(O)CCCCC2)c1)c1cc[nH]c(=O)n1 [Example 17, 2-Chloro-N-(1-hydroxy-cyclohexylmethyl)-5-[methyl-(2-oxo-1,2-dihydro-pyrimidin-4-yl)-amino]-benzamide] | 35 nM
CN(c1ccc(Cl)c(C(=O)NCC2(O)CCCCC2)c1)c1cnc(Cl)cn1 [Example 87, 2-Chloro-5-[(5-chloro-pyrazin-2-yl)-methyl-amino]-N-(1-hydroxy-cyclohexylmethyl)-benzamide] | 190 nM
Cc1ccc(N(C)c2cc[nH]c(=O)n2)cc1C(=O)NCC1(O)CCCCC1 [Example 155, N-(1-Hydroxy-cyclohexylmethyl)-2-methyl-5-[methyl-(2-oxo-1,2-dihydro-pyrimidin-4-yl)-amino]-benzamide] | 199 nM
O=C(NCC1(O)CCCCC1)c1cc(Oc2cnccn2)ccc1Cl [Example 121, 2-Chloro-N-(1-hydroxy-cyclohexylmethyl)-5-(pyrazin-2-yloxy)-benzamide] | 93 nM
COCCN(c1ccc(Cl)c(C(=O)NCC2(O)CCCCC2)c1)c1cnccn1 [Example 80, 2-Chloro-N-(1-hydroxy-cyclohexylmethyl)-5-[(2-methoxy-ethyl)-pyrazin-2-yl-amino]-benzamide] | 1430 nM
COc1nccc(N(CC(C)C)c2ccc(Cl)c(C(=O)NCC3(O)CCCCC3)c2)n1 [Example 28, 2-Chloro-N-(1-hydroxy-cyclohexylmethyl)-5-[isobutyl-(2-methoxy-pyrimidin-4-yl)-amino]-benzamide] | 353 nM
CN(c1ccc(Cl)c(C(=O)NCC2(O)CCC(F)(F)CC2)c1)c1ccnc(=O)[nH]1 [Example 58, 2-Chloro-N-(4,4-difluoro-1-hydroxy-cyclohexylmethyl)-5-[methyl-(2-oxo-2,3-dihydro-pyrimidin-4-yl)-amino]-benzamide] | 51 nM
CN(c1ccc(Cl)c(C(=O)NCC2(O)CCCCC2)c1)c1cccc(=O)[nH]1 [Example 95, 2-Chloro-N-(1-hydroxy-cyclohexylmethyl)-5-[methyl-(6-oxo-1,6-dihydro-pyridin-2-yl)-amino]-benzamide] | 351 nM
CN(c1ccc(Cl)c(C(=O)NCC2(O)CCCCC2)c1)c1ccccc1F [Example 5, 2-Chloro-5-[(2-fluoro-phenyl)-methyl-amino]-N-(1-hydroxy-cyclohexylmethyl)-benzamide] | 531 nM
COc1nccc(Nc2ccc(Cl)c(C(=O)NCC3(O)CCCCC3)c2)n1 [Example 12, 2-Chloro-N-(1-hydroxy-cyclohexylmethyl)-5-(2-methoxy-pyrimidin-4-ylamino)-benzamide] | 733 nM
O=C(NCC1(O)CCCCC1)c1cc(Cn2ccccc2=O)ccc1Cl [Example 142, 2-Chloro-N-(1-hydroxy-cyclohexylmethyl)-5-(2-oxo-2H-pyridin-1-ylmethyl)-benzamide] | 80 nM
COc1cncc(Oc2ccc(Cl)c(C(=O)NCC3(O)CCCCC3)c2)n1 [Example 123, 2-Chloro-N-(1-hydroxy-cyclohexylmethyl)-5-(6-methoxy-pyrazin-2-yloxy)-benzamide] | 123 nM
O=C(NCC1(O)CCCCC1)c1cc(Nc2cccc(=O)[nH]2)ccc1Cl [Example 94, 2-Chloro-N-(1-hydroxy-cyclohexylmethyl)-5-(6-oxo-1,6-dihydro-pyridin-2-ylamino)-benzamide] | 160 nM
